Laboratory results from US20230096766A1, “AMINO ACID HAVING FUNCTIONAL GROUP CAPABLE OF INTERMOLECULAR HYDROGEN BONDING, PEPTIDE COMPOUND CONTAINING SAME AND METHOD FOR PRODUCTION THEREOF” (Chugai Seiyaku Kabushiki Kaisha, priority 2018, published 2023).
*1 amine or outer side, *2 acyl side, *3 side chain or, on linkers, in order; H or OH if unused. Where a SMILES comes first, the peptide text is derived from it. Bridges are numbered along the chain shown (N, C = ends). [ ]: non-standard residue; d: D form. The star is where a group is joined. ξ: configuration not given here. hPhe(3-OMe,4-CONHMe) = CNC(=O)c1ccc(CC[C@H](N)C(=O)O)cc1OC; NMePhe(3-Cl) = CN[C@@H](Cc1cccc(Cl)c1)C(=O)O; X12 = O=C([C@H](CCCC(O)C(F)(F)F)N[*:1])[*:2]; Ala(4-thiazolyl) = N[C@@H](Cc1cscn1)C(=O)O; ξGln(SO2Me) = CS(=O)(=O)NC(=O)CCC(N)C(=O)O; NMehPhe = CN[C@@H](CCc1ccccc1)C(=O)O; X7 = O=C(C[C@H](COCCO)N[*:1])[*:2]; NMeF = CN[C@@H](Cc1ccccc1)C(=O)O; NMeGABA = CN(CCCC(=O)[*:2])[*:1]; NMeI = CC[C@H](C)[C@H](NC)C(=O)O; CH2CH(OH)CF3 = OC(C*)C(F)(F)F; NMeL = CN[C@@H](CC(C)C)C(=O)O; Butyl(3R-OH) = C[C@@H](O)CC*; Propyl(2R-OH) = C[C@@H](O)C*; NMeV = CN[C@H](C(=O)O)C(C)C; NMeAbu = CC[C@H](NC)C(=O)O; NMeA = CN[C@@H](C)C(=O)O; Piperidide = C1CCN(*)CC1; X8 = C1COC[C@@H](C*)N1; NBuGly = CCCCNCC(=O)O; NPrGly = CCCNCC(=O)O; Ethyl(2-OH) = OCC*; X3 = C[C@H](O)C*; Sar = CNCC(=O)O; tBu = CC(C)(C)*

Experiment: in vitro
Settings: human, Caco-2, Caco-2

SMILES	Papp [×10⁻⁶ cm/s]
CCCCN1CC(=O)N(C)[C@@H](CC(C)C)C(=O)N[C@@H](COC(C)(C)C)C(=O)N(C)[C@@H](Cc2ccccc2)C(=O)N(C)[C@@H](C(C)C)C(=O)N[C@H](C(=O)N2CCCCC2)CC(=O)N[C@H](C(C)C)C(=O)N(C)[C@@H](Cc2ccccc2)C(=O)NC(CCC(=O)NS(C)(=O)=O)C(=O)N(C)[C@@H](CC(C)C)C(=O)N[C@@H](CC(C)C)C1=O (stereo partly drawn) [pd67] ([dV][NMeF][ξGln(SO2Me)][NMeL]L[NBuGly][NMeL]S(tBu)[NMeF][NMeV]D-Piperidide; lactam N-11)	0.06

Same assay, conditions: human, Caco-2, Caco-2 (cm/sec)

SMILES	Papp [×10⁻⁶ cm/s]
CC(C)C[C@@H]1NC(=O)[C@H](C(C)C)N(C)C(=O)C[C@@H](C(=O)N2CCCCC2)NC(=O)[C@H](CC(C)C)N(C)C(=O)CN(C)C(=O)[C@H]([C@@H](C)O)NC(=O)[C@H](CC(C)C)N(C)C(=O)[C@H](CCc2ccccc2)N(C)C(=O)[C@H](COCCO)NC(=O)[C@H](Cc2ccccc2)N(C)C(=O)[C@H](CC(C)C)N(C)C1=O [Compound A06] ([NMeV]L[NMeL][NMeF]S(Ethyl(2-OH))[NMehPhe][NMeL]T[Sar][NMeL]D-Piperidide; lactam N-11)	0.53
CC(C)C[C@H]1C(=O)N[C@@H](COC(C)(C)C)C(=O)N(C)[C@@H](Cc2ccccc2)C(=O)N(C)[C@@H](CC(C)C)C(=O)N[C@H](C(=O)N2CCCCC2)CC(=O)N[C@H](C(C)C)C(=O)N(C)[C@@H](Cc2ccccc2)C(=O)N[C@@H](C(C)C)C(=O)N(C)[C@@H](Cc2ccccc2)C(=O)N[C@@H]([C@@H](C)O)C(=O)N(C)CC(=O)N1C [pd210] ([dV][NMeF]V[NMeF]T[Sar][NMeL]S(tBu)[NMeF][NMeL]D-Piperidide; lactam N-11)	1.6
CC[C@H](C)[C@@H]1NC(=O)[C@H](CC(C)C)N(C)C(=O)[C@@H](C)NC(=O)C[C@@H](C(=O)N2CCCCC2)NC(=O)[C@H](C(C)C)N(C)C(=O)[C@H](CC(C)C)N(C)C(=O)[C@H](COC(C)(C)C)NC(=O)[C@H](CC(C)C)N(C)C(=O)CN(C)C(=O)[C@H](Cc2c[nH]c3ccccc23)NC(=O)[C@H](CC(C)C)N(C)C1=O [pd108] ([dA][NMeL]I[NMeL]W[Sar][NMeL]S(tBu)[NMeL][NMeV]D-Piperidide; lactam N-11)	0.87
CCCCN1CC(=O)N(C)[C@@H](Cc2ccccc2)C(=O)N(C)[C@@H](CC(C)C)C(=O)N[C@@H](CCc2ccc(C(=O)NC)c(OC)c2)C(=O)N(C)[C@@H](CC(C)C)C(=O)N[C@H](C(=O)N2CCCCC2)CC(=O)N(C)CC(=O)N(C)[C@@H](CC(C)C)C(=O)N[C@@H]([C@@H](C)CC)C(=O)N(C)[C@@H](CC(C)C)C(=O)N[C@@H]([C@@H](C)O)C1=O [AP207] ([Sar][NMeL]I[NMeL]T[NBuGly][NMeF][NMeL][hPhe(3-OMe,4-CONHMe)][NMeL]D-Piperidide; lactam N-11)	0.51
CC(C)C[C@@H]1NC(=O)[C@H](CCc2ccccc2)N(C)C(=O)[C@H](CCc2ccccc2)N(C)C(=O)[C@H](COCCO)NC(=O)[C@H](CC(C)C)N(C)C(=O)CCCN(C)C(=O)C[C@@H](C(=O)N2CCCCC2)NC(=O)[C@H](CC(C)C)N(C)C(=O)[C@H](CC(C)C)N(C)C(=O)[C@H]([C@@H](C)O)NC(=O)[C@H](CC(C)C)N(C)C1=O [Compound A03] ([NMeGABA][NMeL]S(Ethyl(2-OH))[NMehPhe][NMehPhe]L[NMeL]T[NMeL][NMeL]D-Piperidide; lactam N-11)	0.32
CCCN1CC(=O)N(C)[C@@H](CC(C)C)C(=O)N[C@@H](COC[C@H](C)O)C(=O)N(C)[C@@H](Cc2cccc(Cl)c2)C(=O)N(C)[C@@H](C(C)C)C(=O)N[C@H](C(=O)N2CCCCC2)CC(=O)N[C@H](C(C)C)C(=O)N(C)[C@@H](Cc2ccccc2)C(=O)N[C@@H](CC(C)C)C(=O)N(C)[C@@H](CC(C)C)C(=O)N[C@@H]([C@@H](C)O)C1=O [AP70] ([dV][NMeF]L[NMeL]T[NPrGly][NMeL]S(X3)[NMePhe(3-Cl)][NMeV]D-Piperidide; lactam N-11)	0.75
CCCCN1CC(=O)N(C)[C@@H](Cc2cccc(Cl)c2)C(=O)N(C)[C@@H](CC(C)C)C(=O)N[C@@H](COCC[C@@H](C)O)C(=O)N(C)[C@@H](CC(C)C)C(=O)N[C@H](C(=O)N2CCCCC2)CC(=O)N(C)CC(=O)N(C)[C@@H](Cc2ccccc2)C(=O)N[C@@H](C(C)C)C(=O)N(C)[C@@H](CC(C)C)C(=O)N[C@@H]([C@@H](C)O)C1=O [AP114] ([Sar][NMeF]V[NMeL]T[NBuGly][NMePhe(3-Cl)][NMeL]S(Butyl(3R-OH))[NMeL]D-Piperidide; lactam N-11)	0.28
CCCCN1CC(=O)N(C)[C@@H](Cc2ccccc2)C(=O)N(C)[C@@H](CC(C)C)C(=O)N[C@@H](COC(C)(C)C)C(=O)N(C)[C@@H](CC(C)C)C(=O)N[C@H](C(=O)N2CCCCC2)CC(=O)N(C)CC(=O)N(C)[C@@H](Cc2cccc(Cl)c2)C(=O)N[C@@H](COC[C@@H](C)O)C(=O)N(C)[C@@H](CC(C)C)C(=O)N[C@@H]([C@@H](C)O)C1=O [AP77] ([Sar][NMePhe(3-Cl)]S(Propyl(2R-OH))[NMeL]T[NBuGly][NMeF][NMeL]S(tBu)[NMeL]D-Piperidide; lactam N-11)	1
CCCCN1CC(=O)N(C)[C@@H](CC(C)C)C(=O)N[C@H](C(=O)N2CCCCC2)CC(=O)N(C)[C@@H](CC)C(=O)N[C@@H](CC(C)C)C(=O)N(C)[C@@H](CC(C)C)C(=O)N(C)[C@@H](Cc2ccccc2)C(=O)N[C@@H](COC[C@@H]2COCCN2)C(=O)N(C)[C@@H](CC)C(=O)N(C)[C@@H](CC(C)C)C(=O)N[C@@H]([C@@H](C)O)C1=O [AP242] ([NMeAbu]L[NMeL][NMeF]S(X8)[NMeAbu][NMeL]T[NBuGly][NMeL]D-Piperidide; lactam N-11)	1.2
CC[C@H](C)[C@@H]1NC(=O)[C@H](Cc2ccccc2)N(C)C(=O)[C@H](CCc2ccc(C(=O)NC)c(OC)c2)NC(=O)[C@H](CC(C)C)N(C)C(=O)[C@H](C(C)C)NC(=O)[C@H](CC(C)C)N(C)C(=O)[C@H](CC(C)C)N(C)C(=O)CNC(=O)[C@H](CC)N(C)C(=O)C[C@@H](C(=O)N2CCCCC2)NC(=O)[C@H]([C@@H](C)O)NC(=O)[C@H](CC(C)C)N(C)C(=O)[C@H](CC(C)C)N(C)C1=O [AP266] ([NMeAbu]G[NMeL][NMeL]V[NMeL][hPhe(3-OMe,4-CONHMe)][NMeF]I[NMeL][NMeL]TD-Piperidide; lactam N-13)	< 0.0895
CCCCN1CC(=O)N(C)[C@@H](Cc2ccccc2)C(=O)N[C@@H](COCCO)CC(=O)N(C)[C@@H](CC(C)C)C(=O)N[C@@H]([C@@H](C)O)C(=O)N(CCC)CC(=O)N(C)[C@@H](Cc2ccccc2)C(=O)N(C)[C@@H](CC(C)C)C(=O)N[C@@H](CC(C)C)C(=O)N(C)[C@@H](CC(C)C)C(=O)N[C@H](C(=O)N2CCCCC2)CC1=O [AP25] ([NBuGly][NMeF][X7][NMeL]T[NPrGly][NMeF][NMeL]L[NMeL]D-Piperidide; lactam N-11)	0.62

Same assay, conditions: human, Caco-2, Caco-2 (cm/sec) Papp

SMILES	Papp [×10⁻⁶ cm/s]
CC(C)C[C@@H]1NC(=O)[C@H](CC(C)C)N(C)C(=O)[C@@H](C)NC(=O)C[C@@H](C(=O)N2CCCCC2)NC(=O)[C@H](Cc2ccccc2)N(C)C(=O)[C@H](Cc2ccccc2)N(C)C(=O)[C@H](C)N(C)C(=O)[C@H]([C@@H](C)O)NC(=O)[C@H](Cc2ccccc2)N(C)C(=O)[C@H](COC(C)(C)C)NC(=O)[C@H](Cc2ccccc2)N(C)C1=O [pd234] ([dA][NMeL]L[NMeF]S(tBu)[NMeF]T[NMeA][NMeF][NMeF]D-Piperidide; lactam N-11)	0.15
CC(C)C[C@@H]1NC(=O)[C@H](CC(C)C)N(C)C(=O)[C@H](CC(C)C)N(C)C(=O)CNC(=O)[C@H](Cc2ccccc2)N(C)C(=O)[C@H](Cc2cscn2)NC(=O)[C@H](CC(C)C)N(C)C(=O)[C@H](Cc2ccccc2)NC(=O)[C@H](C)NC(=O)C[C@@H](C(=O)N(C)[C@@H](Cc2ccccc2)C(=O)N[C@@H](C)C(=O)N2CCCCC2)NC1=O [pd235] (AF[NMeL][Ala(4-thiazolyl)][NMeF]G[NMeL][NMeL]LD[NMeF]A-Piperidide; lactam N-10)	0.1
CC(C)C[C@H]1C(=O)N(C)[C@@H](Cc2ccccc2)C(=O)N(C)[C@@H](Cc2ccccc2)C(=O)N[C@@H]([C@@H](C)O)C(=O)N(C)[C@@H](C)C(=O)N(C)[C@@H](Cc2ccccc2)C(=O)N[C@H](C(=O)N2CCCCC2)CC(=O)N(C)[C@@H](C)C(=O)N(C)[C@@H](CC(C)C)C(=O)N(C)[C@@H](Cc2ccccc2)C(=O)N[C@@H](C)C(=O)N1C [pd232] ([NMeA][NMeL][NMeF]A[NMeL][NMeF][NMeF]T[NMeA][NMeF]D-Piperidide; lactam N-11)	0.19

Same assay, conditions: human, Caco-2, Caco-2 (membrane permeability)

SMILES	Papp [×10⁻⁶ cm/s]
CC[C@H]1C(=O)N(C)[C@@H](Cc2ccccc2)C(=O)N[C@@H](CC(C)C)C(=O)N(C)[C@@H](Cc2ccccc2)C(=O)N(C)[C@@H](C(C)C)C(=O)N[C@@H](CCCC(O)C(F)(F)F)C(=O)N(C)CC(=O)N(C)[C@@H](CC(C)C)C(=O)N[C@H](C(=O)N2CCCCC2)CC(=O)N(C)[C@@H](C)C(=O)N[C@@H](CC(C)C)C(=O)N1C (stereo partly drawn) [Compound D14] ([NMeA]L[NMeAbu][NMeF]L[NMeF][NMeV][X12][Sar][NMeL]D-Piperidide; lactam N-11)	0.9
CCCCN1CC(=O)N(C)[C@@H](Cc2ccccc2)C(=O)N(C)[C@@H](CC(C)C)C(=O)N[C@@H](COCC(O)C(F)(F)F)C(=O)N(C)[C@@H](CC(C)C)C(=O)N[C@H](C(=O)N2CCCCC2)CC(=O)N(C)CC(=O)N(C)[C@@H](Cc2ccccc2)C(=O)N[C@@H]([C@@H](C)CC)C(=O)N(C)[C@@H](CC(C)C)C(=O)N[C@@H]([C@@H](C)O)C1=O (stereo partly drawn) [Compound C07] ([Sar][NMeF]I[NMeL]T[NBuGly][NMeF][NMeL]S(CH2CH(OH)CF3)[NMeL]D-Piperidide; lactam N-11)	0.45
CC[C@H](C)[C@H]1C(=O)N[C@@H]([C@@H](C)O)C(=O)N(C)CC(=O)N(C)[C@@H](CC(C)C)C(=O)N[C@H](C(=O)N2CCCCC2)CC(=O)N(C)[C@@H](C(C)C)C(=O)N[C@@H](COCC(O)C(F)(F)F)C(=O)N(C)[C@@H](CC(C)C)C(=O)N(C)[C@@H](Cc2ccccc2)C(=O)N[C@@H](CC(C)C)C(=O)N(C)[C@@H](Cc2ccccc2)C(=O)N1C (stereo partly drawn) [Compound C08] ([NMeV]S(CH2CH(OH)CF3)[NMeL][NMeF]L[NMeF][NMeI]T[Sar][NMeL]D-Piperidide; lactam N-11)	0.6
